{"source": "ChEMBL document CHEMBL2429746", "about": "“Cell-based medicinal chemistry optimization of high throughput screening hits for orally active antimalarials. Part 2: hits from SoftFocus kinase and other libraries” (J Med Chem, 2013)", "key": {"[1]": {"test_system": "Plasmodium falciparum", "assay": "Antimalarial activity against Plasmodium falciparum infected in NOD SCID mouse after 4 days by Peters test", "type": "functional", "settings": "96 h"}, "[2]": {"test_system": "Plasmodium falciparum", "assay": "Antimalarial activity against Plasmodium falciparum infected in po dosed SCID mouse assessed as reduction in parasitaemia by Peters test", "type": "functional"}, "[3]": {"assay": "Half life in Sprague-Dawley rat at 5 mg/kg, po", "type": "ADME, organism-based", "set-up": "dose 5 mg/kg, route oral", "settings": "in vivo"}, "[4]": {"test_system": "Plasmodium falciparum", "assay": "Antimalarial activity against blood stage of Plasmodium falciparum Dd2 assessed as parasite viability after 72 hrs by SYBR green dye-based assay", "type": "functional, organism-based", "settings": "Dd2, 72 h"}, "[5]": {"test_system": "Plasmodium falciparum", "assay": "Antimalarial activity against blood stage of Plasmodium falciparum 3D7 assessed as parasite viability after 72 hrs by SYBR green dye-based assay", "type": "functional, organism-based", "settings": "3D7, 72 h"}}, "data": [{"molecule": "O=C(O)CCc1cccc2c1B(O)OC2", "values": [{"measurement": "ED90", "setting": "[1]", "value": 0.6, "unit": "mg/kg"}]}, {"molecule": "COc1ccc(-c2cc(-c3ccc(S(C)(=O)=O)cc3)cnc2N)cn1", "values": [{"measurement": "ED90", "setting": "[2]", "value": 3.6, "unit": "mg/kg"}, {"measurement": "half-life", "setting": "[3]", "value": 8.7, "unit": "h"}]}, {"molecule": "NC1=Nc2ccc(Cl)cc2C1(O)c1ccccc1", "note": "(stereo not given)", "values": [{"measurement": "IC50", "setting": "[4]", "value": 507, "unit": "nM"}, {"measurement": "IC50", "setting": "[5]", "value": 216, "unit": "nM"}]}]}
